Melting point and IC50 data for 23 molecules are collected here from US6426360B1, “4,5-substituted imidazolyl compounds for the treatment of inflammation” (G D Searle & Co., priority 1994, dated 2002).

Structures are written as SMILES.

Data set [1] has as its target T1, Human COX II (Homo sapiens, UniProt P35354).
T1 construct: A 2.0 kb fragment containing the coding region of either human or murine COX-I or human or murine COX-II; made in house; host or cells: SF9 insect cells (recombinant baculovirus, transfer vector pVL1393)
T1 sequence (P35354 18-604): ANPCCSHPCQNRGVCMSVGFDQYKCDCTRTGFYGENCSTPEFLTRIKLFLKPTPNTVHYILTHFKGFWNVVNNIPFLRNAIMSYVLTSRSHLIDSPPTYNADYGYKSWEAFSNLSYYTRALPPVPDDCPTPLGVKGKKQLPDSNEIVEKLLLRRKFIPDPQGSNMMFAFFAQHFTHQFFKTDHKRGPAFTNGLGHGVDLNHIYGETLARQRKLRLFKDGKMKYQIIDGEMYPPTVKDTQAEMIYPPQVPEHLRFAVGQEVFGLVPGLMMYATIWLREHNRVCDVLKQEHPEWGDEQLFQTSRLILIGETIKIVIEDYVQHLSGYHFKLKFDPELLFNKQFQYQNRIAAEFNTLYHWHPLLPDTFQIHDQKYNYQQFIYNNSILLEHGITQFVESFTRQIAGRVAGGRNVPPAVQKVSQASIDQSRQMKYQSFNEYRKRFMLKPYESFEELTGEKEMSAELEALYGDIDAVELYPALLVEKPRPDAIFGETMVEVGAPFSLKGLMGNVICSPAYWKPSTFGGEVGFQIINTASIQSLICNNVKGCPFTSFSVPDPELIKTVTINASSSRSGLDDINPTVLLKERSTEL
Kind of data set: COX II activity in vitro (PGE2 ELISA, recombinant enzyme). It counts as biochemical. The settings on record: arachidonic acid 10 μM, pre-incubation 10-20 minutes; read-out: Human COX II ID50. As for the experimental part:
The COX II inhibition activity of the compounds of this invention illustrated in the Examples was determined by the following methods.
(§1) A 2.0 kb fragment containing the coding region of either human or murine COX-I or human or murine COX-II was cloned into a BamH1 site of the baculovirus transfer vector pVL1393 (Invitrogen) to generate the baculovirus transfer vectors for COX-I and COX-II in a manner similar to the method of D. R. O'Reilly et al (Baculovirus Expression Vectors: A Laboratory Manual (1992)). Recombinant baculoviruses were isolated by transfecting 4 μg of baculovirus transfer vector DNA into SF9 insect cells ([…]) along with 200 ng of linearized baculovirus plasmid DNA by the calcium phosphate method. See M. D. Summers and G. E. Smith, A Manual of Methods for Baculovirus Vectors and Insect Cell Culture Procedures, Texas Agric. Exp. Station Bull. 1555 (1987). Recombinant viruses were purified by three rounds of plaque purification and high titer (10E7-10E8 pfu/ml), stocks of virus were prepared. For large scale production, SF9 insect cells were infected in 10 liter fermentors (0.5×10^6/ml) with the recombinant baculovirus stock such that the multiplicity of infection was 0.1. After 72 hours the cells were centrifuged and the cell pellet homogenized in Tris/Sucrose (50 mM: 25%, pH 8.0) containing 1% 3-[(3-cholamidopropyl)dimethylammonio]-1-propanesulfonate (CHAPS). The homogenate was centrifuged at 10,000×G for 30 minutes, and the resultant supernatant was stored at −80° C. before being assayed for COX activity.
(§2) COX activity was assayed as PGE2 formed/μg protein/time using an ELISA to detect the prostaglandin released. CHAPS-solubilized insect cell membranes containing the appropriate COX enzyme were incubated in a potassium phosphate buffer (50 mM, pH 8.0) containing epinephrine, phenol, and heme with the addition of arachidonic acid (10 μM). Compounds were pre-incubated with the enzyme for 10-20 minutes prior to the addition of arachidonic acid. Any reaction between the arachidonic acid and the enzyme was stopped after ten minutes at 37° C./room temperature by transferring 40 μl of reaction mix into 160 μl ELISA buffer and 25 μM indomethacin. The PGE2 formed was measured by standard ELISA technology (Cayman Chemical).

Data set [2] deals with T2, Human COX I (Homo sapiens, UniProt P23219).
T2 construct: A 2.0 kb fragment containing the coding region of either human or murine COX-I or human or murine COX-II; made in house; host or cells: SF9 insect cells (recombinant baculovirus, transfer vector pVL1393)
Kind of data set: COX I activity in vitro (PGE2 ELISA, recombinant enzyme). Format: biochemical. The settings on record: arachidonic acid 10 μM, pre-incubation 10-20 minutes; read-out: Human COX I ID50. As for the experimental part:
as §1, §2

T2 sequence (P23219 24-599): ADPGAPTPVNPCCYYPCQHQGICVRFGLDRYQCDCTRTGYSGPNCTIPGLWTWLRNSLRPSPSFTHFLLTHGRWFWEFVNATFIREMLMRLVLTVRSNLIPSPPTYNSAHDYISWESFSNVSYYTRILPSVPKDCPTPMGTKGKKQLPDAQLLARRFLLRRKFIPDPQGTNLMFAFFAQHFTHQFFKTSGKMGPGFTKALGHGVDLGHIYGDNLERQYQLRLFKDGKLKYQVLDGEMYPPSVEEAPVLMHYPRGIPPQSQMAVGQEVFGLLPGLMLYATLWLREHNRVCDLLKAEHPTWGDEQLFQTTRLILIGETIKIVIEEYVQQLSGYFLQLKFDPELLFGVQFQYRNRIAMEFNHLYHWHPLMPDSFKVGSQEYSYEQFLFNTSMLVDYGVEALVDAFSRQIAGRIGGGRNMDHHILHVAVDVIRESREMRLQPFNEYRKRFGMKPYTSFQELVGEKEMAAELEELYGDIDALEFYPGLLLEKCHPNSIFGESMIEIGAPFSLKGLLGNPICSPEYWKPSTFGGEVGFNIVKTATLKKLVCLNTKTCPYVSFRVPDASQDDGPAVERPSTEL

As to `CS(=O)(=O)c1ccc(-c2[nH]c(C(=O)CCc3ccccc3)nc2-c2ccc(F)cc2)cc1` [Example 85], the melting point fell in the range of 227 to 231 °C. Further, the IC50 in data set [1] amounted to 0.4 µM. Also, the IC50 in data set [2] is above 100 µM.

`CS(=O)(=O)c1ccc(-c2nc(C(F)(F)F)[nH]c2-c2ccccc2)cc1` [Example 19, 4-[4-(Methylsulfonyl)phenyl]-5-phenyl-2-(trifluoromethyl)-1H-imidazole] returned a melting point of 228 to 230 °C. The IC50 in data set [1] came to 0.5 µM. Further, the IC50 in data set [2] is above 100 µM.

As for `CS(=O)(=O)c1ccc(-c2[nH]c(SCc3ccc4ccccc4n3)nc2-c2ccc(F)cc2)cc1` [Example 50, 2-[[[4-(4-Fluorophenyl)-5-[4-(methylsulfonyl)phenyl]-1H-imidazol-2-yl]thio]methyl]quinoline], the melting point was 179 to 182 °C. Also, in data set [1], the IC50 was 1.5 µM. Also, the IC50 in data set [2] was above 100 µM.

With `CS(=O)(=O)c1ccc(-c2nc(C(F)(F)F)[nH]c2-c2ccc(Cl)cc2)cc1` [Example 11, 5-(4-Chlorophenyl)-4-[4-(methylsulfonyl)phenyl]-2-(trifluoromethyl)-1H-imidazole], the IC50 worked out at 0.4 µM in data set [1] and 10.4 µM in data set [2].

In the case of `CN(C)c1ccc(-c2[nH]c(C(F)(F)F)nc2-c2ccc(S(C)(=O)=O)cc2)cc1` [Example 48, N,N-Dimethyl-4-[4-[4-(methylsulfonyl)phenyl]-2-(trifluoromethyl)-1H-imidazol-5-yl]benzenamine], the melting point lay within 248 to 251 °C. Further, the IC50 in data set [1] was 8.7 µM. Further, in data set [2], the IC50 was above 100 µM.

As for `CS(=O)(=O)c1ccc(-c2[nH]c(S(=O)(=O)c3ccccc3)nc2-c2ccc(F)cc2)cc1` [Example 92, 4-(4-Fluorophenyl)-5-[4-(methylsulfonyl)phenyl]-2-(phenyl-sulfonyl)-1H-imidazole], the IC50 in data set [1] is 3 µM; in data set [2], above 100 µM.

Consider `CS(=O)(=O)c1ccc(-c2nc(C(F)(F)F)[nH]c2-c2ccc(F)cc2F)cc1` [Example 17, 5-(2,4-Difluorophenyl)-4-[4-(methylsulfonyl)phenyl]-2-(trifluoromethyl)-1H-imidazole], for which the IC50 is 0.3 µM in data set [1] and above 100 µM in data set [2].

For `COCc1nc(-c2ccc(S(C)(=O)=O)cc2)c(-c2ccc(F)cc2)[nH]1` [Example 79, 5-(4-Fluorophenyl)-2-(methoxymethyl)-4-[4-(methylsulfonyl)-phenyl]-1H-imidazole], the melting point turned out to be 169 °C. In addition, in data set [1], the IC50 stood at 8.3 µM. In addition, in data set [2], the IC50 was above 100 µM.

Take `CC(O)(c1nc(-c2ccc(F)cc2)c(-c2ccc(S(C)(=O)=O)cc2)[nH]1)C(F)(F)F` (stereo not drawn) [Example 91, 4-(4-Fluorophenyl)-α-methyl-5-[4-(methylsulfonyl)phenyl]-α-(trifluoromethyl)-1H-imidazole-2-methanol]: the IC50 in data set [1] is 5.9 µM; in data set [2], above 100 µM.

In the case of `C=CCOCc1nc(-c2ccc(F)cc2)c(-c2ccc(S(C)(=O)=O)cc2)[nH]1` [Example 80, 4-(4-Fluorophenyl)-5-[4-(methylsulfonyl)phenyl]-2-[(2-propenyloxy)methyl]-1H-imidazole], the IC50 in data set [1] is 2.9 µM; in data set [2] it was above 100 µM.

For `CS(=O)(=O)c1ccc(-c2nc(/C=C/c3ccccc3)[nH]c2-c2ccc(F)cc2)cc1` [Example 3, 5-(4-Fluorophenyl)-4-(4-methylsulfonylphenyl)-2-(2-phenyl-trans-eth-1-ene)-1H-imidazole], the melting point lay in the range of 221 to 224 °C. For the same molecule, in data set [1], the IC50 came to 0.2 µM. For the same molecule, in data set [2], the IC50 was determined as 2.2 µM.

Consider `CS(=O)(=O)c1ccc(-c2nc(COc3ccccc3)[nH]c2-c2ccc(F)cc2)cc1` [Example 2, 5-(4-Fluorophenyl)-4-(4-methylsulfonylphenyl)-2-phenoxymethyl-1H-imidazole], for which the melting point lay in the range of 189 to 190 °C. In addition, in data set [1], the IC50 came to 0.2 µM. Also, in data set [2], the IC50 was above 100 µM.

In turn, `COc1ccc(-c2[nH]c(C(F)(F)F)nc2-c2ccc(S(C)(=O)=O)cc2)cc1F` [Example 10, 5-(3-Fluoro-4-methoxyphenyl)-4-[4-(methylsulfonyl)phenyl]-2-(trifluoromethyl)-1H-imidazole] displayed a melting point of 228 to 234 °C. Further, the IC50 in data set [1] stood at 1.2 µM. In addition, the IC50 in data set [2] is 63.5 µM.

With `CS(=O)(=O)c1ccc(-c2nc(C(F)(F)F)[nH]c2-c2cccc(C#N)c2)cc1` [Example 63], the results for the IC50 in data set [1] and in data set [2] were 1.3 µM and above 100 µM, respectively.

Turning to `CS(=O)(=O)c1ccc(-c2[nH]c(S)nc2-c2ccc(F)cc2)cc1` [Example 49, 4-(4-Fluorophenyl)-5-[4-(methylsulfonyl)phenyl]-1H-imidazole-2-thiol], the melting point was in the range of 158 to 161 °C. For the same molecule, the IC50 in data set [1] came to 55 µM. Besides, in data set [2], the IC50 is 10.8 µM.

Molecule `CS(=O)(=O)c1ccc(-c2nc(-c3cc4ccccc4o3)[nH]c2-c2ccc(F)cc2)cc1` [Example 4, 2-(2-Benzofuryl)-5-(4-fluorophenyl)-4-(4-methylsulfonylphenyl)-1H-imidazole] gave a melting point of 235 to 237 °C. Also, the IC50 in data set [1] is 0.5 µM. Besides, the IC50 in data set [2] is above 100 µM.

Take `Cc1cccc(-c2[nH]c(C(F)(F)F)nc2-c2ccc(S(N)(=O)=O)cc2)c1` [Example 60, 5-(3-Methylphenyl)-4-[4-(sulfonamido)phenyl]-2-trifluoromethyl-1H-imidazole]: the IC50 in data set [1] was 0.1 µM; in data set [2], 6.2 µM.

`Cc1nc(-c2ccc(S(C)(=O)=O)cc2)c(-c2ccc(F)cc2)[nH]1` [Example 6, 5-(4-Fluorophenyl)-2-methyl-4-(4-methylsulfonylphenyl)-1H-imidazole]: the IC50 in data set [1] was 4.6 µM; in data set [2], above 100 µM.

As to `CS(=O)(=O)c1ccc(-c2nc(C(F)(F)F)[nH]c2-c2ccccc2Cl)cc1` [Example 12, 5-(2-Chlorophenyl)-4-[4-(methylsulfonyl)phenyl]-2-(trifluoromethyl)-1H-imidazole], the results for the IC50 in data set [1] and in data set [2] were 1.3 µM and above 100 µM, respectively.

For `CS(=O)(=O)c1ccc(-c2nc(C(F)(F)F)[nH]c2-c2cccnc2)cc1` [Example 62, 4-(4-(Methylsulfonyl)phenyl]-5-(3-pyridyl)-2-(trifluoromethyl)-1H-imidazole], the IC50 in data set [1] was 2.4 µM; in data set [2], above 100 µM.

Regarding `CS(=O)(=O)c1ccc(-c2nc(C(F)(F)F)[nH]c2-c2ccc(F)c(F)c2)cc1` [Example 18, 5-(3,4-Difluorophenyl)-4-[4-(methylsulfonyl)phenyl]-2-(trifluoromethyl)-1H-imidazole], the IC50 in data set [1] was 0.2 µM; in data set [2] it was above 100 µM.

With `CCOCc1nc(-c2ccc(F)cc2)c(-c2ccc(S(C)(=O)=O)cc2)[nH]1` [Example 81, 2-(Ethoxymethyl)-4-(4-fluorophenyl)-5-[4-(methylsulfonyl)phenyl]-1H-imidazole], the IC50 in data set [1] worked out at 3.3 µM; in data set [2], 77 µM.

On to `CS(=O)(=O)c1ccc(-c2[nH]c(COCc3ccccc3)nc2-c2ccc(F)cc2)cc1` [Example 82, 4-(4-Fluorophenyl)-5-[4-(methylsulfonyl)phenyl]-2-(phenyl-methoxymethyl)-1H-imidazole], for which the figures for the IC50 in data set [1] and in data set [2] were 0.7 µM and above 100 µM, respectively.
